Assay results published in patent publication US9624280B2 (JANSSEN BIOTECH, INC., priority 2013, dated 2017).
Entries after “also recorded” stand apart in the source; their conditions may differ. Where two headings read alike, the source gives them in different places. No end group written: not given here.

Key:
[1] = molecular target: human Nav1.5 (Homo sapiens, UniProt Q14524)
[2] = molecular target: T1, human Nav1.6 (Homo sapiens, UniProt Q9UQD0); type: cell-based
T1 construct: expressed in transfected cells

[3] = system: rodent; details: Schmalhofer et al. 2008; cited from earlier work
[4] = system: isolated nerves; details: unless the perineural barrier is compromised; Hackel et al. 2012; cited from earlier work
[5] = system: C57Bl/6 mice; details: mouse, in vivo
[6] = system: C57Bl/6 mice; assay: CFA model, tactile allodynia (Von Frey test); type: in vivo
Source text: (§1) Male C57Bl/6 mice (24-26 g), ordered from Charles River and housed individually, were used for this study.
7 graded stimuli (von Frey filaments: 0.03, 0.07, 0.16, 0.4, 0.6, 1, 2 g; Stoelting, Wood Dale, Ill.) were used. Von Frey hairs were presented perpendicularly against the center plantar area (between toris) on a hindpaw. Sufficient force was applied to bend the filament slightly and held for 3 seconds. Per the Chaplan paper, a positive response can be either 1) a sharp withdrawal or 2) immediate flinching upon removal of the filament. See Chaplan et al for more details. Mice were acclimated to the wire mesh in the testing chamber for 30-60 minutes prior to testing.
(§2) Percent maximum possible effect (MPE %)=(T1−T0)/(Tc−T0)×100%. T0: threshold on day0 (post-CFA, pre-pump); T1: threshold on day1 post pump implantation; Tc: cut-off of the test (20 s for the Hargreaves test and 2 g for the Von Frey test)
(§3) Animals were anesthetized with isoflurane (4% induction and 2% maintenance) and 20 μL of 100% Complete Freund's Adjuvant (CFA; Sigma-Aldrich; Saint Louis, Mo.) was injected into the center plantar area on one hind paw using a 27 gauge needle attached to a 50 μL Hamilton syringe. Carrageenan model: Animals were anesthetized with isoflurane (4% induction and 2% maintenance) and 25 μL of 2% A-carrageenan (Sigma-Aldrich; Saint Louis, Mo.) dissolved in normal saline was injected into the center plantar area on hind paws using an insulin syringe (BD; Franklin Lakes, N.J.).
Alzet micro-osmotic mini pumps (Durect Corporation Model 1003D and 2001D) were filled and primed per manufacturer's guide. Mice were anesthetized with isoflurane (5% induction; 2% maintenance). Their backs were shaved, wiped down with isopropyl alcohol and povidone iodine, and a small incision was made between the scapulae. Using a pair of forceps or hemostat, a small pocket was formed by spreading the subcutaneous connective tissues apart. […]
Data are represented as mean±s.e.m. […] Hotplate and MPE % data were analyzed by one-way ANOVA followed by Bonferroni's multiple comparison test.

[7] = system: C57Bl/6 mice; assay: Hotplate test; type: in vivo
Method: as §1
Animals were placed on a 10″×10″ metal plate surrounded by 4 Plexiglas walls (15 inches high). The plate was maintained at a temperature of either 50 or 55° C. The response latency (time when the animal first flinches or licks its hind paw, jumps, or vocalizes) was measured and the animal removed from the plate. Animals showing no response were removed from the plate after 40 s (50° C.) or 20 s (55° C.) to prevent any possible tissue damage. This trial was repeated 2-5 times every 15-60 minutes in a day.
(§4) Alzet micro-osmotic mini pumps (Durect Corporation Model 1003D and 2001D) were filled and primed per manufacturer's guide. Mice were anesthetized with isoflurane (5% induction; 2% maintenance). Their backs were shaved, wiped down with isopropyl alcohol and povidone iodine, and a small incision was made between the scapulae. Using a pair of forceps or hemostat, a small pocket was formed by spreading the subcutaneous connective tissues apart. The pump was inserted into the pocket with the flow moderator pointing away from the incision. The skin incision was then closed using 7 mm staples and the animals were allowed to recover in their home cages.
(§5) Data are represented as mean±s.e.m. Prism (Graphpad Software Inc., La Jolla, Calif.) was used for graphing and statistical analysis. For comparison of threshold values over time, a two-way ANOVA followed by Bonferroni's multiple comparison test was used with a significance level of p<0.05. Hotplate and MPE % data were analyzed by one-way ANOVA followed by Bonferroni's multiple comparison test.

[8] = system: C57Bl/6 mice; assay: CFA model of inflammatory pain, thermal hyperalgesia (Hargreaves test); type: in vivo; details: for Thermal MPE %: CFA model, mice, mean±s.e.m. (n)
Method: as §1
This box consists of a chamber with a raised glass floor maintained at a constant temperature (27° C.). The thermal nociceptive stimulus originates from a projection bulb light beam below the glass surface. The light beam is aimed at the area between toris (center plantar). The “start” button will turn on the light and start the timer. Movements (such as a sudden withdrawal) of the stimulated paw will trigger the switch to turn off the light and stop the timer. […] If no movement occurs, the bulb will be turned off after 20 seconds (cutoff) to prevent tissue injury. The animals were allowed to habituate on the glass surface for 30-60 minutes before PWL measurement.
as §2, §3, §4, §5

T1 sequence (Q9UQD0 whole entry): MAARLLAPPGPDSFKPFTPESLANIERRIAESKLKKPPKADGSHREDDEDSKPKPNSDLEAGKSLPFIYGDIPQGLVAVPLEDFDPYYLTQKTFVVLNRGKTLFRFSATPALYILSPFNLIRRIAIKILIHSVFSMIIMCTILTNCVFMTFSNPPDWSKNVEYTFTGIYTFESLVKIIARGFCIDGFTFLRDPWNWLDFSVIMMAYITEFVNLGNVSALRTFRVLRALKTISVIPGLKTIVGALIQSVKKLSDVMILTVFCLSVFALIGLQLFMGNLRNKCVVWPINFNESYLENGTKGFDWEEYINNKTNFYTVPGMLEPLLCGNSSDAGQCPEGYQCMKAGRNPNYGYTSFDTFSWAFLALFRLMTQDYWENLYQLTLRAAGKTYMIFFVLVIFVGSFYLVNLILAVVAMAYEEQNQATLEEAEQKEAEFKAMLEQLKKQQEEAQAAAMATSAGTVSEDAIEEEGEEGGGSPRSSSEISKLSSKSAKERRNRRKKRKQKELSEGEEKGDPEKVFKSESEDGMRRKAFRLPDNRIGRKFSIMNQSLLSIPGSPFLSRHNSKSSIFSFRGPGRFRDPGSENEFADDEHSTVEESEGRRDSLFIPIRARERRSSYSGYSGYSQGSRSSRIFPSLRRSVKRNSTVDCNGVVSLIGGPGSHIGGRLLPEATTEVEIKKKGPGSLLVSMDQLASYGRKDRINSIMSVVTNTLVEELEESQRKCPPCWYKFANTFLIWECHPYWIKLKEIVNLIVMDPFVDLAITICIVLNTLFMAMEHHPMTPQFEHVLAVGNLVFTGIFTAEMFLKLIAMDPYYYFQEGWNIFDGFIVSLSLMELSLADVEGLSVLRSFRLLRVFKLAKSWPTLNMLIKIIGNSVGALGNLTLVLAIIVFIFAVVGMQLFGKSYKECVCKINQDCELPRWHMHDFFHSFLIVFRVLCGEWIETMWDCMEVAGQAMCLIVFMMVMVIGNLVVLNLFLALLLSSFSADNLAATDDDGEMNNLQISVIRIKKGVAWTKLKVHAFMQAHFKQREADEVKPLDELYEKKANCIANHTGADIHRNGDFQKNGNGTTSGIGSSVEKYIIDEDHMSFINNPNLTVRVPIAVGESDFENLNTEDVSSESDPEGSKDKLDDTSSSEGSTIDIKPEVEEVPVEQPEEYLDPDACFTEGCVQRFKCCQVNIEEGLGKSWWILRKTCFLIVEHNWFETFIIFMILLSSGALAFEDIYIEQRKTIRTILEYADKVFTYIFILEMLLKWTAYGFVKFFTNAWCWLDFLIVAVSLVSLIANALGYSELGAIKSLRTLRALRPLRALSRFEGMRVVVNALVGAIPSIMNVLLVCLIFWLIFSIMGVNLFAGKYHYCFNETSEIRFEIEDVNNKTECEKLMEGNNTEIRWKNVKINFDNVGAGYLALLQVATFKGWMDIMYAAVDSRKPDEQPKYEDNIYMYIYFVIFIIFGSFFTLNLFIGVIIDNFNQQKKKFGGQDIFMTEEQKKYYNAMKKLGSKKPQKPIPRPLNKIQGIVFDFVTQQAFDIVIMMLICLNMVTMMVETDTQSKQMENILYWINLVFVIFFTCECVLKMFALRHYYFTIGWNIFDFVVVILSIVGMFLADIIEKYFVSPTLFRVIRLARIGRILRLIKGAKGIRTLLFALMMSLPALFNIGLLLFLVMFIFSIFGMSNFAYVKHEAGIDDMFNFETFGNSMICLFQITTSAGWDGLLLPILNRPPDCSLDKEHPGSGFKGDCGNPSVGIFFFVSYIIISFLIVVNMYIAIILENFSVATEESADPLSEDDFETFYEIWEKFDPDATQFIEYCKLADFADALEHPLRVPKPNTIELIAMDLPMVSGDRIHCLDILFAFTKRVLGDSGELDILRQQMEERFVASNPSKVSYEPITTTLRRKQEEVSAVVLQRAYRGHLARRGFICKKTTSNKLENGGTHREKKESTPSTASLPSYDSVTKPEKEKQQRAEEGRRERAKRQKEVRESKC
Sequence of human Nav1.5 (Q14524 whole entry): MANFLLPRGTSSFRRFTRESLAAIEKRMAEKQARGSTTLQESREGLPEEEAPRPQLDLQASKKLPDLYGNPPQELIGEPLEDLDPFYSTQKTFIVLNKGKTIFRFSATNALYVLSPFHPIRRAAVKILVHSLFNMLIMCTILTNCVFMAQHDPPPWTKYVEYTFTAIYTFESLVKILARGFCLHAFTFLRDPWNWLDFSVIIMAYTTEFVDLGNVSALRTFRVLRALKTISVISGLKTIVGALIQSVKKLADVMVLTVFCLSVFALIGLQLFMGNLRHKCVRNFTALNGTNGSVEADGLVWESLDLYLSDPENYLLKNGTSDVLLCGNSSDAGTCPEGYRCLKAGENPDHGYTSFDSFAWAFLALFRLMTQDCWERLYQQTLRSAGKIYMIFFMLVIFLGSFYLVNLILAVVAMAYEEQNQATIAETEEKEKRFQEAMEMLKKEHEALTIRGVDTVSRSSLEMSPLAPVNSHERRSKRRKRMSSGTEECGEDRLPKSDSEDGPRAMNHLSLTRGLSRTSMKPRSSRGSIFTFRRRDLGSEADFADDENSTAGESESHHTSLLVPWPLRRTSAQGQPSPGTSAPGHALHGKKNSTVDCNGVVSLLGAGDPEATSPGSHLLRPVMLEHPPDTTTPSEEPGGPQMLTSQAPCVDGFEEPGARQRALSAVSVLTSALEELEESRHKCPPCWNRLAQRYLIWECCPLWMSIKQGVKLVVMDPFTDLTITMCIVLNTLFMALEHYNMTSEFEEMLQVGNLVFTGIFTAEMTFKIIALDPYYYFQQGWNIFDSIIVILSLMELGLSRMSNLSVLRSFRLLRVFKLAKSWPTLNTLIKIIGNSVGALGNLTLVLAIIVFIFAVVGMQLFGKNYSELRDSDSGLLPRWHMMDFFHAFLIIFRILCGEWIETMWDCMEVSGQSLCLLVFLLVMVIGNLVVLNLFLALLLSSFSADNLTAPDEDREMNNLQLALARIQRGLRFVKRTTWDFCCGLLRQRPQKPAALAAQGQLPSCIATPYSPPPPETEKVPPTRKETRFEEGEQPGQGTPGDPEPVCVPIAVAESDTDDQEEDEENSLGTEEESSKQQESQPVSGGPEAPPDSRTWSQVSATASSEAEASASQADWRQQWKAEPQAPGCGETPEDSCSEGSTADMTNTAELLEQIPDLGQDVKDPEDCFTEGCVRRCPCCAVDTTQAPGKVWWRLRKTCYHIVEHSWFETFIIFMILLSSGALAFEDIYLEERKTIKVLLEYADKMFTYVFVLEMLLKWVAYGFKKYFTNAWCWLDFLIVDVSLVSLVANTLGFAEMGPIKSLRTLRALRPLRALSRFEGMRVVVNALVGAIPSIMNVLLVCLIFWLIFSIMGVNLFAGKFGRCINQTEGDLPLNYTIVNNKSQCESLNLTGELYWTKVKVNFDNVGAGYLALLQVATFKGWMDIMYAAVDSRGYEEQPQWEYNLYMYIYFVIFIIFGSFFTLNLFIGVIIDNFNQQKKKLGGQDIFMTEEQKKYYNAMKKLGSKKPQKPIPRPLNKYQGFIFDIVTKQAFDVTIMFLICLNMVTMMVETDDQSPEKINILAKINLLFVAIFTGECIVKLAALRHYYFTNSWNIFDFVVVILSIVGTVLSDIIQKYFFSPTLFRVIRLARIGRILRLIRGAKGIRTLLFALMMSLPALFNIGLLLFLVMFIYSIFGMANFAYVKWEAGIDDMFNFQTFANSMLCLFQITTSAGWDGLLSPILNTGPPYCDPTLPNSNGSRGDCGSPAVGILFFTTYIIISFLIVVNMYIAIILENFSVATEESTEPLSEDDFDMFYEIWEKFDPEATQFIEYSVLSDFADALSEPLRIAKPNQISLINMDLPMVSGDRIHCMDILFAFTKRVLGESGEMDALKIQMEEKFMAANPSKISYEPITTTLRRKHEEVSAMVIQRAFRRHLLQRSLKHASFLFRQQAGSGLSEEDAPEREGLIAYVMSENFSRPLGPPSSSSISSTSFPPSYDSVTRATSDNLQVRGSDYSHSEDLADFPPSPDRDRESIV

Q: Which IC50 ([1]; human, pH 7.4) does the source give for “GPSCQKWMQTCDAERKCCEGFVCRLWCKKKLW-OH (cysteine pairing not given here) [NV1D2773]” here?
A: > 3000 nM

Q: Which IC50 ([2]; read-out: IC50 for Nav1.6, QPatch electrophysiology assay) does the source give for “GPYCQKWMWTCDSERKCCEGMVCRLWCKKKLW-COOH [NV1D12, reference compound]” here?
A: ~62 nM

Q: And the IC50 [1]?
A: > 1000 nM

Q: For “YCQKWMWTCDSERKCCEGMVCRLWCKKKLW-COOH [wild type Protoxin-II]”, which “efficacy in rodent models of acute and inflammatory pain” value [3] is on record?
A: non-efficacious

Q: And the “inhibition of action potential firing in isolated nerves” value [4]?
A: inability

Q: For “GPQCQKWMQTCDAERKCCEGFVCRLWCKKKLW-OH (cysteine pairing not given here) [NV1D2775]”, which “analgesia, thermal withdrawal latency on day1 post-pump” value [5] is on record?
A: significant analgesia

Q: And the “protection from carrageenan-induced thermal hyperalgesia” value [5]?
A: fully protected

Q: What about the CFA-induced tactile allodynia ([6]; 1824 μg/day) of the same substance?
A: reversed

Q: And the “time at which effect reached the maximum, tactile test” value ([6]; mouse, in vivo)?
A: 8 h

Q: And the “time by which tactile threshold returned to control level post pump implantation” value ([6]; mouse, in vivo)?
A: ≤ 48 h

Q: And the “selectivity for Nav1.7 compared to recombinant Protoxin-II” value [2]?
A: improved selectivity

Q: What about the “hotplate thermal latency compared to the PBS control” value ([7]; 228 μg/day) of the same substance?
A: modest yet significant increase

Q: What about the “hotplate latencies at 50 and 55° C.” value ([7]; 1824 μg/day) of the same substance?
A: near cut-off

Q: And the “efficacy in the hotplate test” value ([7]; mouse, in vivo, listed as NV1D2775-OH)?
A: strong, dose-dependent efficacy; also recorded: significant analgesia

Q: What about the “thermal latencies after peptide administration” value ([8]; 1824 μg/day, cut-off 20 s) of the same substance?
A: close to the cut-off

Q: And the “Thermal MPE %” value ([8]; 228 μg/day/mouse by subcutaneous osmotic mini-pump)?
A: 35 ± 8 (8) %

Q: What about the “Thermal MPE %” value ([8]; 1824 μg/day/mouse by subcutaneous osmotic mini-pump) of the same substance?
A: 85 ± 6 %

Q: What about the “efficacy in the CFA model” value ([8]; mouse, in vivo) of the same substance?
A: strong efficacy

Q: What about the “time at which anti-hyperalgesic effect was first seen, post-pump implantation” value ([8]; mouse, in vivo) of the same substance?
A: 4 h

Q: And the “time at which effect reached the maximum, thermal test” value ([8]; mouse, in vivo)?
A: 8 h

Q: What about the “time by which thermal latency returned to control level post pump implantation” value ([8]; mouse, in vivo) of the same substance?
A: ≤ 48 h
